In patent US8658000B2, “Preparation method of apigenin and dehydrosilybin mixture using radiation” (Korea Atomic Energy Research Institute, priority 2011, dated 2014):

What was measured:
[1] = test system: prostate carcinoma cell line (DU145); assay: EZ-Cytox cell viability assay, prostate carcinoma cell line (DU145); assay type: cell-based; conditions: Homo sapiens, DU-145; DU145, 50 μg/mL, 24 h, non-treated = 100
Protocol: (§1) To investigate the cancer cell inhibitory effect of the compounds of formulae 1 and 2 obtained by the preparation method according to the present invention, experiment was conducted. EZ-Cytox cell viability assay kit (Daeil Lab, Korea) was used to measure cancer cell growth inhibitory activity, and prostate carcinoma cell line (DU145), cervical carcinoma cell line (Hela), colon carcinoma cell line (SW480), and lung carcinoma cell line (H460) were used for cancer cells. All the cancer cells were incubated in 96-well plate at concentration of 5×10^4 cells/mL. After 24 h, dehydrosilybin compound of formula 1 and apigenin compound of formula 2 according to the present invention, and starting substance (i.e., silybin) as a control were treated at concentration of 50 μg/mL. After culturing at 37° C., 5% carbon dioxide environment, 24 h, 10 μL of kit solution was treated in each well. After 3 h of additional culturing, the optical absorbance was measured at 480 nm. The result is listed in Tables 3 to 6 and illustrated in FIGS. 2 to 7.

[2] = test system: colon carcinoma cell line (SW480); assay: EZ-Cytox cell viability assay, colon carcinoma cell line (SW480); assay type: cell-based; conditions: Homo sapiens; SW480, 50 μg/mL, 24 h, non-treated = 100
Protocol: as §1

[3] = test system: cervical carcinoma cell line (Hela); assay: EZ-Cytox cell viability assay, cervical carcinoma cell line (Hela); assay type: cell-based; conditions: Homo sapiens, 50 μg/mL, 24 h, non-treated = 100
Protocol: as §1

various cancers = conditions: background statement; cited from earlier work
[4] = test system: lung carcinoma cell line (A549); assay: EZ-Cytox cell viability assay, lung carcinoma cell line (A549); assay type: cell-based; conditions: Homo sapiens; A549, 50 μg/mL, 24 h, non-treated = 100
[5] = test system: colon carcinoma cell line (SW620); assay: EZ-Cytox cell viability assay, colon carcinoma cell line (SW620); assay type: cell-based; conditions: Homo sapiens, SW-620; SW620, 50 μg/mL, 24 h, non-treated = 100
[6] = test system: lung carcinoma cell line (H460); assay: EZ-Cytox cell viability assay, lung carcinoma cell line (H460); assay type: cell-based; conditions: Homo sapiens, NCI-H460; H460, 50 μg/mL, 24 h, non-treated = 100
Protocol: as §1

| Structure (SMILES) | viability at 50 µg/mL [1] [%] | viability at 50 µg/mL [2] [%] | viability at 50 µg/mL [3] [%] | concentration at which apigenin can effectively act (anticancer activity) (various cancers) [µM] | viability at 50 µg/mL [4] [%] | viability at 50 µg/mL [5] [%] | viability at 50 µg/mL [6] [%] |
| --- | --- | --- | --- | --- | --- | --- | --- |
| O=c1cc(-c2ccc(O)cc2)oc2cc(O)cc(O)c12 [Compound of formula 2, 5,7-dihydroxy-2-(4-hydroxyphenyl)-4H-chroman-4-one] | 51.6 | 49.2 | 38.7 | < 50 | 72.1 | 39.4 | 97.4 |
| COc1cc(C2Oc3cc(-c4oc5cc(O)cc(O)c5c(=O)c4O)ccc3OC2CO)ccc1O (stereo not shown) [Compound of formula 1] | 40.4 | 41.7 | 21.1 |  | 58.9 | 27.8 | 66.3 |
